Results as given in paper PMC5589090 (PLoS Medicine, 2017).
Like-named read-outs stand apart in the source and are kept apart here.

Experiments:
HbF = HbF levels by HPLC; format: in vivo, human
Text: Blood counts, blood chemistries, total bilirubin, HbF, LDH, and D-dimer levels were standard clinical pathology tests through the CLIA-certified Clinical Pathology Laboratory at the University of Illinois at Chicago. […] For quantification of F-cells by flow cytometry, peripheral blood samples were fixed and stained with phycoerythrin-conjugated anti-HbF (Caltag) per manufacturer’s instructions. A normal adult negative control and cord blood positive control were run with each Becton-Dickinson FacsCalibur (Sunnyvale, CA) analysis.

E. Coli lac I transgene = conditions: ref 76 77; cited from earlier work
[1] = Adverse events (CTCAE v 4.0), phase 1 trial NCT01685515 in SCD adults; conditions: cohorts 1-5
Text: The primary endpoint was ≥ grade 3 non-hematologic toxicity.
For statistical comparisons of adverse events (AEs) between placebo and each dose group, we performed exact tests of the null hypothesis that the rate parameters of Poisson distributed AEs are equal. Relative risks are given as the ratio of such rate parameters. Thus, differences are insignificant if relative risks confidence intervals include 1. The R function poisson.test(), an exact test, was used. Pain, the most frequent AE, was analyzed similarly.

DNMT1 = conditions: cited from earlier work
[2] = cited from earlier work
[3] = Decitabine storage and solution stability; format: physicochemical; conditions: 18 months at -20 °C
[4] = system: normal CD34+ hematopoietic stem and progenitor cells; conditions: cited from earlier work
[5] = parameters: method as in Investigators Brochure; conditions: THU co-administration, mice; ref Investigators Brochure; cited from earlier work
8 melanoma cell lines = system: 8 melanoma cell lines; parameters: method as in ref 21 (a number printed in a supplementary file, which may have a reference list of its own: not looked up in the article's list); conditions: two daily treatments 0.2 µM; cited from earlier work
[6] = system: 10T1/2 cells and V79 cells; parameters: method as in ref 74 (a number printed in a supplementary file, which may have a reference list of its own: not looked up in the article's list); conditions: cited from earlier work
[7] = human starting dose 0.01 mg/kg
Procedure: To ensure safety in case of this possibility, decitabine pharmacokinetics are measured after single dose oral administration of decitabine and THU.

[8] = system: Friend erythroleukemia cells; parameters: method as in ref 48 (a number printed in a supplementary file, which may have a reference list of its own: not looked up in the article's list); conditions: single exposure 0.4 µM; cited from earlier work
[9] = parameters: method as in ref 16 (a number printed in a supplementary file, which may have a reference list of its own: not looked up in the article's list); conditions: decitabine 0.1-0.2mg/kg 1-2X/week, four SCD patients; cited from earlier work
[10] = read-out: decitabine Cmax; 15 mg/m^2 IV over 3 hours Q8 hrs D1-3 or 20 mg/m^2 IV over 1 hour D1-5; ref 105;108;109; cited from earlier work
immortal phenotype = system: immortal phenotype; parameters: method as in ref 93 (a number printed in a supplementary file, which may have a reference list of its own: not looked up in the article's list); conditions: cited from earlier work
KG1a = conditions: cited from earlier work
[11] = cited from earlier work; remark: listed apart in the source
lung tumor = system: lung tumor; parameters: method as in ref 91 (a number printed in a supplementary file, which may have a reference list of its own: not looked up in the article's list); conditions: cited from earlier work
[12] = cited from earlier work; remark: listed apart in the source
[13] = two daily treatments 0.5 µM, ref Investigators Brochure

Compound: Nc1ncn([C@H]2C[C@H](O)[C@@H](CO)O2)c(=O)n1 [decitabine, 5-aza-2’-deoxycytidine]
- HbF% increases by HPLC (HbF; decitabine 0.08 mg/kg and […] (cohorts 4 and 5)): increases by HPLC were observed
- HbF% increases by HPLC (HbF; other decitabine dose levels (cohorts 1-3)): not with other decitabine dose levels
- transgene mutations (E. Coli lac I transgene): mutations predominantly at CpG nucleotides
- grade 4 AEs [1]: no grade 4 AEs
- concentrations that deplete DNMT1 without measurable DNA damage or cytotoxicity (DNMT1; in vitro): 200 to 500 nM
- threshold concentration for depleting DNMT1 (DNMT1; ref 15;17-22;48): ~ 0.005 µM
- half-life in vitro (DNMT1; ref 27;101): 5 to 16 h
- greater decitabine exposure in rodents versus human dose for dose [2]: more than 100 fold
- drug substance stability on storage [3]: no change in appearance, assay or impurities
- level that causes measurable DNA damage and apoptosis/cytotoxicity ([4]; peak drug level): > 1000 nM
- DNMT1 depletion [4, 13]: substantially depleted DNMT1
- phospho-H2AX, DNA scission or apoptosis [4, 13]: did not increase phospho-H2AX, DNA scission or apoptosis
- increase of AUClast compared to oral decitabine alone [5]: approximately 9 fold
- DNA damage (H2AX, CHK1, p53 phosphorylation, BAX, GADD45, comet assay) (8 melanoma cell lines): did not cause DNA damage
- mutagenicity [6]: either did not show mutagenicity or was weakly mutagenic
- expected Cmax lower than Cmax […] with reversible toxicity in murine toxicology studies [7]: 3,920 fold
- DNA methylation [8]: decreased DNA methylation
- viability [8]: did not decrease viability
- Hemoglobin increases within 2-4 weeks [9]: > 1.5 g/dL
- maximum hemoglobin increases [9]: 3.5 to 5 g/dL
- Cmax [10]: ≤ 2700 nM
- immortal phenotype (immortal phenotype): reversed the immortal phenotype
- DNMT1 protein expression (KG1a; 0.3 µM daily for 2-3 days): profoundly decreased DNMT1 protein expression
- viability (KG1a; 0.3 µM daily for 2-3 days): did not decrease the viability
- phospho-H2AX (KG1a; 0.3 µM, 3 days of treatment): an increase in phospho-H2AX was noted
- clinical adverse events attributed to decitabine ([11]; 13 SCD and 5 β-thalassemia intermedia patients, SC decitabine 12-36 weeks): no clinical adverse events attributed to decitabine
- platelet count increases to ([11]; SCD study of decitabine): > 8e+11 L⁻¹
- HbF increase from baseline ([11]; parenteral decitabine 2–3X/week, plateau after 12 weeks, SCD patients without HbF response to hydroxyurea): > 10%
- platelet count increases to ([11]; sickle cell study, subcutaneous decitabine): ~ 1000 x 10^9/L
- reduction in tumor incidence (lung tumor): 23%
- reduction in tumor multiplicity (lung tumor): 42%
- Platelet counts, average increase ([12]; at the 6th week): 2.2 fold
- time to maximum HbF [12]: ≤ 4 weeks
- Total Hb increase ([12]; in 6 of 8 subjects): 1 g/dL
- transient decline in neutrophils ([12]; nadir at 6 weeks): 3 fold
